Source: ChEMBL document CHEMBL1201862, “PubChem BioAssay data set” (2004)
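96-well plates; 48 h exposure; 5 concentrations. Endpoints by linear interpolation between flanking doses. Not reached: highest tested concentration assigned. GI50: concentration for 50% inhibition of growth.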 The source made the active and inactive calls. No stated cut-off is given here; in the data, active = GI50 up to about 1.1 µM and inactive = higher.

How the values were obtained:
Experiment in all cases: NCI-60 cell line screen, 48 h
OVCAR-8 = system: OVCAR-8
SNB-75 = system: SNB-75
SNB-19 = system: SNB-19
HCC 2998 = system: HCC 2998
SK-MEL-2 = system: SK-MEL-2
NCI-H23 = system: NCI-H23
U-251 = system: U-251
COLO 205 = system: COLO 205
SK-OV-3 = system: SK-OV-3
SN12C = system: SN12C
HL-60 = system: HL-60
NCI-H522 = system: NCI-H522
LOX IMVI = system: LOX IMVI
786-0 = system: 786-0
RPMI-8226 = system: RPMI-8226
SF-268 = system: SF-268
SK-MEL-5 = system: SK-MEL-5
UACC-257 = system: UACC-257
DU-145 = system: DU-145
MDA-MB-435 = system: MDA-MB-435

Measured: GI50

CN(C)c1ccc(/C=C2\N=C(c3ccc(N)cc3)OC2=O)cc1
inactive: OVCAR-8 > 100 µM | SNB-75 > 100 µM | SNB-19 > 100 µM | HCC 2998 > 100 µM | SK-MEL-2 > 100 µM | NCI-H23 > 100 µM | U-251 > 100 µM | COLO 205 > 100 µM | SK-OV-3 > 100 µM | SN12C > 100 µM | HL-60 > 100 µM | NCI-H522 > 100 µM | LOX IMVI > 100 µM | 786-0 > 100 µM | RPMI-8226 > 100 µM | SF-268 > 100 µM | SK-MEL-5 > 100 µM | UACC-257 > 100 µM

O=S(=O)(SCc1ccccc1)C(c1ccccc1)c1ccccc1
inactive: OVCAR-8 19.8 µM | SNB-75 30.3 µM | SNB-19 > 100 µM | HCC 2998 > 100 µM | SK-MEL-2 39.1 µM | NCI-H23 26.5 µM | U-251 32.9 µM | COLO 205 19.6 µM | SK-OV-3 > 100 µM | SN12C 24.1 µM | HL-60 5.52 µM | NCI-H522 26.6 µM | LOX IMVI 30.4 µM | 786-0 31.6 µM | RPMI-8226 25 µM | SF-268 57.1 µM | SK-MEL-5 22.5 µM | UACC-257 32.9 µM

CN1C(=O)[C@@H]2[C@@H]3c4ccccc4N[C@@H]3c3[nH]c4ccccc4c3[C@@H]2C1=O
inactive: OVCAR-8 21.6 µM | SNB-75 31.6 µM | SNB-19 29.6 µM | HCC 2998 18.2 µM | DU-145 41.7 µM | SK-MEL-2 17.3 µM | NCI-H23 13.9 µM | MDA-MB-435 23.3 µM | U-251 23.8 µM | COLO 205 17 µM | SK-OV-3 26.1 µM | SN12C 29.5 µM | LOX IMVI 20.6 µM | RPMI-8226 18.7 µM | SF-268 32.6 µM | SK-MEL-5 12.5 µM | UACC-257 17.9 µM

N#Cc1nc(Cc2cccs2)oc1N
inactive: OVCAR-8 > 100 µM | SNB-75 > 100 µM | SNB-19 > 100 µM | DU-145 > 100 µM | SK-MEL-2 > 100 µM | MDA-MB-435 > 100 µM | U-251 > 100 µM | SK-OV-3 > 100 µM | SN12C > 100 µM | HL-60 > 100 µM | LOX IMVI > 100 µM | 786-0 > 100 µM | RPMI-8226 > 100 µM | SF-268 > 100 µM | SK-MEL-5 > 100 µM | UACC-257 > 100 µM

Cc1ccc(N(O)C(C)(C)C)cc1
inactive: OVCAR-8 > 100 µM | SNB-75 > 100 µM | SNB-19 > 100 µM | HCC 2998 > 100 µM | SK-MEL-2 > 100 µM | NCI-H23 > 100 µM | U-251 > 100 µM | COLO 205 > 100 µM | SK-OV-3 > 100 µM | SN12C > 100 µM | HL-60 > 78.3 µM | NCI-H522 > 100 µM | LOX IMVI > 100 µM | RPMI-8226 > 100 µM | SF-268 > 100 µM | SK-MEL-5 > 100 µM | UACC-257 > 100 µM

CC(=O)/C(=C/n1c(=S)[nH]c2ccccc21)C(=O)Nc1ccccc1C
inactive: OVCAR-8 > 100 µM | SNB-75 > 100 µM | SNB-19 > 100 µM | HCC 2998 > 100 µM | DU-145 > 100 µM | SK-MEL-2 > 100 µM | NCI-H23 > 100 µM | MDA-MB-435 > 100 µM | U-251 > 100 µM | COLO 205 > 100 µM | SK-OV-3 > 100 µM | SN12C > 100 µM | HL-60 > 100 µM | LOX IMVI > 100 µM | 786-0 > 100 µM | SF-268 > 100 µM | SK-MEL-5 > 100 µM | UACC-257 > 100 µM

CCOC(=O)CNC(=O)c1nc[nH]c1/N=N/N(C)C
inactive: OVCAR-8 > 100 µM | SNB-75 > 100 µM | SNB-19 > 100 µM | HCC 2998 > 100 µM | SK-MEL-2 > 100 µM | NCI-H23 > 100 µM | U-251 > 100 µM | COLO 205 > 100 µM | SK-OV-3 > 100 µM | SN12C > 100 µM | HL-60 > 100 µM | NCI-H522 > 100 µM | LOX IMVI > 100 µM | 786-0 > 100 µM | RPMI-8226 > 100 µM | SF-268 > 100 µM | SK-MEL-5 > 100 µM | UACC-257 > 100 µM

COc1ccc(C#CC(=O)O)c(OC)c1
inactive: OVCAR-8 > 100 µM | SNB-19 > 100 µM | HCC 2998 > 100 µM | DU-145 > 100 µM | SK-MEL-2 > 100 µM | NCI-H23 > 100 µM | MDA-MB-435 > 100 µM | U-251 > 100 µM | COLO 205 > 100 µM | SK-OV-3 > 100 µM | SN12C > 100 µM | HL-60 > 100 µM | LOX IMVI > 100 µM | 786-0 > 100 µM | RPMI-8226 > 100 µM | SK-MEL-5 > 100 µM | UACC-257 > 100 µM

Cc1ccc(C(=O)C2CC3(CCC2(O)c2ccc(C)cc2)CC(=O)Nc2ccccc2C3=O)cc1 (stereo not drawn)
inactive: OVCAR-8 > 100 µM | SNB-75 13.5 µM | SNB-19 51.6 µM | HCC 2998 > 100 µM | DU-145 > 100 µM | SK-MEL-2 > 100 µM | NCI-H23 > 100 µM | MDA-MB-435 > 100 µM | U-251 8.39 µM | COLO 205 > 100 µM | SK-OV-3 > 100 µM | SN12C > 100 µM | HL-60 10.5 µM | LOX IMVI > 100 µM | SF-268 > 100 µM | SK-MEL-5 6.89 µM | UACC-257 > 100 µM

[O-][S+]1c2ccccc2NC(c2ccc3ccccc3c2)CC1c1ccccc1 (stereo not drawn)
inactive: OVCAR-8 21.2 µM | SNB-75 24.8 µM | SNB-19 30.6 µM | HCC 2998 17.8 µM | SK-MEL-2 92.7 µM | NCI-H23 16.7 µM | COLO 205 29.9 µM | SK-OV-3 99.1 µM | SN12C 32.6 µM | HL-60 24.3 µM | NCI-H522 17.8 µM | LOX IMVI 17.9 µM | 786-0 17.3 µM | RPMI-8226 21.6 µM | SF-268 36.4 µM | SK-MEL-5 17.5 µM | UACC-257 32.4 µM

COc1ccc(N2C(=O)C3c4[nH]c5ccccc5c4C4CCCCC4C3C2=O)cc1 (stereo not drawn)
inactive: OVCAR-8 11 µM | SNB-75 3.5 µM | SNB-19 50.6 µM | HCC 2998 18.3 µM | SK-MEL-2 16.6 µM | NCI-H23 25.8 µM | U-251 15.6 µM | COLO 205 3.94 µM | SK-OV-3 19.7 µM | SN12C 25.5 µM | HL-60 16.2 µM | NCI-H522 18 µM | LOX IMVI 20 µM | 786-0 11.1 µM | RPMI-8226 32.3 µM | SF-268 8.61 µM | SK-MEL-5 21.7 µM | UACC-257 27.8 µM

CC(=O)/C=C/c1c[nH]c(=O)[nH]c1=O
inactive: OVCAR-8 241 µM | SNB-75 217 µM | SNB-19 295 µM | HCC 2998 236 µM | SK-MEL-2 197 µM | NCI-H23 257 µM | U-251 151 µM | COLO 205 154 µM | SK-OV-3 166 µM | SN12C 142 µM | HL-60 97.9 µM | NCI-H522 94.4 µM | LOX IMVI 97.5 µM | RPMI-8226 129 µM | SF-268 168 µM | SK-MEL-5 271 µM | UACC-257 265 µM

O=[N+]([O-])c1cc2ncc(-c3ccccc3)c(O)c2cc1/C(Cl)=C/c1ccccc1
inactive: OVCAR-8 5.6 µM | SNB-75 9.1 µM | SNB-19 16.3 µM | HCC 2998 8.26 µM | SK-MEL-2 32.6 µM | NCI-H23 7.67 µM | U-251 6.5 µM | COLO 205 7.82 µM | SK-OV-3 27.1 µM | SN12C 14.2 µM | HL-60 5.25 µM | NCI-H522 3.48 µM | LOX IMVI 6.93 µM | RPMI-8226 2.39 µM | SF-268 3.62 µM | SK-MEL-5 5.04 µM | UACC-257 24.3 µM

COc1ccc2nc(C(=O)c3ccccc3)c(C)cc2c1
inactive: OVCAR-8 5.31 µM | SNB-75 2.96 µM | SNB-19 9.16 µM | HCC 2998 6.01 µM | SK-MEL-2 6.27 µM | NCI-H23 3.71 µM | U-251 3.5 µM | COLO 205 5.93 µM | SK-OV-3 3.83 µM | SN12C 6.84 µM | HL-60 3.38 µM | NCI-H522 1.88 µM | LOX IMVI 5.43 µM | 786-0 7.03 µM | RPMI-8226 6.61 µM | SF-268 6.76 µM | SK-MEL-5 3.15 µM | UACC-257 4.14 µM

Cc1nc(C(N)=S)sc1C(=O)CC(=O)C(=O)Nc1ccc(Br)cc1
inactive: OVCAR-8 > 100 µM | SNB-75 > 100 µM | SK-MEL-2 > 100 µM | NCI-H23 > 100 µM | MDA-MB-435 > 100 µM | U-251 > 100 µM | SK-OV-3 > 100 µM | SN12C > 100 µM | HL-60 > 100 µM | NCI-H522 66.4 µM | LOX IMVI > 100 µM | 786-0 > 100 µM | RPMI-8226 > 100 µM | SF-268 > 100 µM | SK-MEL-5 > 100 µM | UACC-257 > 100 µM

C=CCOCCCC(=O)C(=[N+]=[N-])C(=O)OC
inactive: OVCAR-8 > 100 µM | SNB-75 > 100 µM | SNB-19 > 100 µM | HCC 2998 > 100 µM | DU-145 > 100 µM | SK-MEL-2 > 100 µM | NCI-H23 > 100 µM | U-251 > 100 µM | COLO 205 > 100 µM | SK-OV-3 > 100 µM | SN12C > 100 µM | HL-60 > 100 µM | NCI-H522 > 100 µM | LOX IMVI > 100 µM | 786-0 > 100 µM | RPMI-8226 > 100 µM | SF-268 > 100 µM | SK-MEL-5 > 100 µM | UACC-257 > 100 µM
